Results reported in patent publication US9776965B2, “Pyrrolidin-2-one and piperidin-2-one derivatives as 11-beta hydroxysteroid dehydrogenase inhibitors” (Janssen Pharmaceutica N.V., priority 2004, dated 2017).

Experiments:
[1] = target: T1, 11b-HSD2 (Homo sapiens, UniProt P80365); test: Cellular assay, 11b-HSD2 activity in HepG2 cells; type: cell-based; parameters: endogenous in cells; host or cells: HepG2 (ATCC HB-8065); details: 4 hour pre-incubation, read-out: [C2] HSD2 cellular HepG2 Score
T1 sequence (P80365 1-405): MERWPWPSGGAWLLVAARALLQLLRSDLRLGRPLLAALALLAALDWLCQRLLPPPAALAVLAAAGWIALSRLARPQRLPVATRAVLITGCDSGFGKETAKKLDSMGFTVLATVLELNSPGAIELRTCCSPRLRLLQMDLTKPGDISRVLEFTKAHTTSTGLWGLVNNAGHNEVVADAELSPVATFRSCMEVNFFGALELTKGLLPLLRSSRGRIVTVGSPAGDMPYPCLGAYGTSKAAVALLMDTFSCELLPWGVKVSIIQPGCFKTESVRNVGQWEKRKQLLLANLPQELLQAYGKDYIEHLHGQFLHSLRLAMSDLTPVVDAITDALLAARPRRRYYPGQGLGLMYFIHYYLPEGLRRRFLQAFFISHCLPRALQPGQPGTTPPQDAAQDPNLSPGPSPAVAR
Description: The effects on 11b-HSD2 activity was studied in HepG2 and LCC-PK1-cells HepG2-cells (ATCC HB-8065) were seeded in 12 well plates at a density of 100,000 cells/ml and grown at 37 C in a humidified 5% CO2 atmosphere in MEM-Rega-3 medium supplemented with 10% heat inactivated foetal calf serum, 2 mM L-glutamine and sodium bicarbonate). Medium was refreshed twice a week.
Following a 4 hour pre-incubation with test compound, 0.5 μCi ^3H-cortisol or corticosterone, was added to the cultures. One hour later, the medium was extracted on Extrelut^3-columns with 15 ml diethyl ether and the extract was analysed by HPLC as described above.
(§1) As for the enzymatic assays, the compounds to be tested were taken from a stock solution and tested at a final concentration ranging from […] to 3.10^−9M. From the thus obtained dose response curves, the pIC50 value was calculated and scored as follows; Score 1=pIC50 value<5, Score 2=pIC50 value in the range of 5 to 6, Score 3=pIC50 value>6. Some of the thus obtained results are summarized in the table below (in this table NT stands for Not Tested).

[2] = target: 11b-HSD1 (Homo sapiens, UniProt P28845); test: Enzymatic assay, 11b-HSD1 dependent conversion of cortisone into cortisol (reductase activity); type: biochemical; details: recombinant protein, 2 μM cortisone, 45 min at 37 C; read-out: [C1] HSD1-prot Reduct Score
Description: The effects of compounds on 11b-HSD1 dependent conversion of cortisone into cortisol (reductase activity) was studied in a reaction mixture containing 30 mM Tris-HCl buffer pH 7.2, 180 μM NADPH, 1 mM EDTA, 2 μM cortisone, 1 μl drug and/or solvent and 11 μg recombinant protein in a final volume of 100 μl.
All incubations were performed for 45 min at 37 C in a water bath. The reaction was stopped by adding 100 μl acetonitrile containing 20 μg corticosterone as internal standard. After centrifugation, the product formation was analysed in the supernatant by HPLC on a Hypersyl BDS-C18 column using 0.05 mM ammonium acetate/methanol (50/50) as solvent. In all of the aforementioned assays, the drugs to be tested were taken from a stock solution and tested at a final concentration ranging from […] to 3.10^−9M. From the thus obtained dose response curves, the pIC50 value was calculated and scored as follows; Score 1=pIC50 value<5, Score 2=pIC50 value in the range of 5 to 6, Score 3=pIC50 value>6. (in this table NT stands for Not Tested).

[3] = target: T2, 11b-HSD1 (Mus musculus, UniProt P50172); test: Cellular assay, 11b-HSD1 activity in differentiated 3T3-L1 cells; type: cell-based; details: 4 hour pre-incubation; for IC50: read-out: [C2] HSD1 cellular 3T3-L1 Score
T2 construct: Fibroblasts were differentiated into adipocytes; endogenous in cells; host or cells: differentiated 3T3-L1 cells (ATCC-CL-173)
Description: The effects on 11b-HSD1 activity was measured in differentiated 3T3-L1 cells and rat hepatocytes.
Mouse fibroblast 3T3-L1 cells (ATCC-CL-173) were seeded at a density of 16500 cells/ml in 12 well plates and grown for 7 days in DMEM medium (supplemented with 10% heat inactivated foetal calf serum, 2 mM glutamine and 25 mg gentamycin) at 37 C in a humidified 5% CO2 atmosphere. Medium was refreshed twice a week. Fibroblasts were differentiated into adipocytes at 37 C in a 5% CO2 humidified atmosphere in growth medium containing 2 μg/ml insulin, 55 μg/ml IBMX and 39.2 μg/ml dexamethasone.
Following a 4 hour pre-incubation with test compound, 0.5 μCi ^3H-cortisone or dehydrocorticosterone, was added to the cultures. One hour later, the medium was extracted on Extrelut^3-columns with 15 ml diethyl ether and the extract was analysed by HPLC as described above.
as §1

Chain of 11b-HSD1 (Homo sapiens, UniProt P28845) (P28845 whole entry): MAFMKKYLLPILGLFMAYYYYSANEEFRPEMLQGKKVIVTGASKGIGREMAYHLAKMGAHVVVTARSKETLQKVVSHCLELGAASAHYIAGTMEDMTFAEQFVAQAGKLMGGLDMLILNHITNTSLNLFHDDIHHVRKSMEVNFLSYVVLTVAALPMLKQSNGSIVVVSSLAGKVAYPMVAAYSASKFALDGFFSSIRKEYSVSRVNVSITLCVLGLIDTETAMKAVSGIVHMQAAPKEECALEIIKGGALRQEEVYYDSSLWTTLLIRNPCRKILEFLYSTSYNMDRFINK
T2 sequence (P50172 whole entry): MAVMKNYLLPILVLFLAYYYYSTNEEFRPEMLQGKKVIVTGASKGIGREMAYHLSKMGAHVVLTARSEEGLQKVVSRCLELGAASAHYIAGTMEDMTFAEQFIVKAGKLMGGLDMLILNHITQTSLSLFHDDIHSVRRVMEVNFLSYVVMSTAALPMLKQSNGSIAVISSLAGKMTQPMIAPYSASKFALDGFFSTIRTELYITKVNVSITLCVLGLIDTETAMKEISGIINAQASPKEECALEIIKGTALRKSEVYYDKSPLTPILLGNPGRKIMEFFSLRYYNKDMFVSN

Row | IC50 [1] [µM] | IC50 [2] [µM] | IC50 [3] [µM] | [C2] HSD1 cellular 3T3-L1 Score [3] | SMILES
1 |  | 1 to 10 | < 1 |  | COc1ccc(C[C@H]2CCN([C@@H](C)c3ccccc3)C2=O)c(Cl)c1OC [Compound 120]
2 |  | < 1 | < 1 |  | C[C@@H](c1ccccc1)N1CC[C@H](Cc2ccc(F)cc2Cl)C1=O [Compound 150]
3 |  | 1 to 10 | 1 to 10 |  | O=C1C(Cc2ccc(F)cc2Cl)CCCN1CCc1ccccc1 (centres unmarked) [Compound 88]
4 |  | > 10 | 1 to 10 |  | C[C@H](c1ccccc1)N1CC[C@@H](Cc2cccc(Cl)c2Cl)C1=O [Compound 42]
5 |  | > 10 | < 1 |  | CC(C)(c1ccccc1)N1CCC(Cc2c(Cl)cccc2Cl)C1=O (centres unmarked) [Compound 115]
6 |  | > 10 | 1 to 10 |  | COc1ccccc1CC1CCN(Cc2ccccc2)C1=O (centres unmarked) [Compound 60]
7 |  | > 10 | 1 to 10 |  | Cc1ccccc1C[C@]1(C)CCN([C@@H](C)c2ccccc2)C1=O [Compound 142]
8 |  | 1 to 10 | < 1 |  | C[C@H](c1ccccc1)N1CC[C@@H](Cc2ccccc2C#N)C1=O [Compound 49]
9 |  | 1 to 10 | 1 to 10 |  | Cc1ccccc1CC[C@@H]1CCN([C@@H](C)c2ccccc2)C1=O [Compound 127]
10 |  | > 10 | 1 to 10 |  | Cc1cccc(C[C@@H]2CCN([C@@H](C)c3ccccc3)C2=O)c1 [Compound 16]
11 |  | > 10 | < 1 |  | CC[C@H](C[C@H]1CCN([C@@H](C)c2ccccc2)C1=O)c1ccccc1 [Compound 140]
12 |  | 1 to 10 | < 1 |  | C[C@H](c1ccccc1)N1CC[C@@H](Cc2ccccc2Cl)C1=O [Compound 40]
13 |  | 1 to 10 | 1 to 10 |  | COc1ccccc1CC[C@@H]1CCN([C@@H](C)c2ccccc2)C1=O [Compound 123]
14 |  | 1 to 10 | 1 to 10 |  | C[C@@H](c1ccccc1)N1CC[C@@H](Cc2cccc(Cl)c2)C1=O [Compound 18]
15 |  | < 1 | < 1 |  | C[C@@H](c1ccccc1)[C@@H]1CCN([C@@H](C)c2ccccc2)C1=O [Compound 158]
16 |  | > 10 | 1 to 10 |  | Cc1ccccc1CC1CCCN(CCc2ccccc2)C1=O (centres unmarked) [Compound 87]
17 |  | 1 to 10 | 1 to 10 |  | C[C@@H](c1ccccc1)N1CC[C@@H](Cc2ccc3c(c2)OCO3)C1=O [Compound 153]
18 |  | 1 to 10 | 1 to 10 |  | O=C1C(Cc2ccccc2Cl)CCN1CCCc1ccccc1 (centres unmarked) [Compound 111]
19 |  | > 10 | 1 to 10 |  | O=C1[C@@H](Cc2c(Cl)cccc2Cl)CCN1[C@H](CO)c1ccccc1 [Compound 104]

The remaining lines, values behind:

Row | SMILES | IC50 [1] [µM] | IC50 [2] [µM] | IC50 [3] [µM] | [C2] HSD1 cellular 3T3-L1 Score [3]
20 | O=C1C(Cc2c(Cl)cccc2Cl)CCN1CCc1ccc(F)cc1 (centres unmarked) [Compound 80] | > 10 | < 1 | < 1 | 
21 | COc1ccccc1C[C@H]1CCN([C@H](C)c2ccccc2)C1=O [Compound 39] |  | > 10 | 1 to 10 | 
22 | Cc1cccc(C[C@@H]2CCN([C@H](C)c3ccccc3)C2=O)c1 [Compound 63] |  | > 10 | 1 to 10 | 
23 | COc1ccccc1C[C@@H]1CCN([C@H](C)c2ccccc2)C1=O [Compound 38] |  | > 10 | 1 to 10 | 
24 | CC[C@@H](C[C@H]1CCN([C@@H](C)c2ccccc2)C1=O)c1ccccc1 [Compound 141] |  | < 1 | > 10 | 
25 | C[C@@H](C[C@@H]1CCN([C@@H](C)c2ccccc2)C1=O)c1ccccc1 [Compound 134] |  | < 1 | < 1 | 
26 | C[C@H](c1ccccc1)N1CC[C@@H](Cc2c(Cl)cccc2Cl)C1=O [Compound 44] |  | > 10 | 1 to 10 | 
27 | O=C1C(Cc2c(Cl)cccc2Cl)CCN1CCc1ccc(F)cc1 (centres unmarked) [Compound 81] |  | > 10 |  | 3 (Score 3=pIC50 value>6)
28 | C[C@@H](c1ccccc1)N1CC[C@@H](CCc2ccc(N(C)C)cc2)C1=O [Compound 130] |  | > 10 | 1 to 10 | 
29 | COc1cccc(C[C@H]2CCN([C@H](C)c3ccccc3)C2=O)c1 [Compound 66] |  | > 10 | 1 to 10 | 
30 | Cc1cccc(CC2CCN(CCc3ccccc3)C2=O)c1 (centres unmarked) [Compound 29] |  | 1 to 10 | 1 to 10 | 
31 | O=C1C(Cc2ccc3c(c2)OCO3)CCN1CCc1ccccc1 (centres unmarked) [Compound 89] |  | > 10 | 1 to 10 | 
32 | O=C1[C@@H](Cc2c(Cl)cccc2Cl)CCN1[C@@H](CO)c1ccccc1 [Compound 106] |  | 1 to 10 | > 10 | 
33 | O=C1C(Cc2ccc(F)cc2Cl)CCN1CCc1ccccc1 (centres unmarked) [Compound 85] |  | 1 to 10 | > 10 | 
34 | Cc1ccccc1C[C@@H]1CCN([C@H](C)c2ccccc2)C1=O [Compound 62] |  | > 10 | 1 to 10 | 
35 | COc1ccc(C[C@@H]2CCN([C@H](C)c3ccccc3)C2=O)cc1 [Compound 50] |  | > 10 | 1 to 10 | 

Row | SMILES | IC50 [1] [µM] | IC50 [2] [µM] | IC50 [3] [µM] | [C2] HSD1 cellular 3T3-L1 Score [3]
36 | C[C@@H](c1ccccc1)N1CC[C@H](CCc2ccc(N(C)C)cc2)C1=O [Compound 131] |  | > 10 | 1 to 10 | 
37 | CC[C@@H](c1ccccc1)N1CC[C@H](Cc2c(Cl)cccc2Cl)C1=O [Compound 94] |  | > 10 | < 1 | 
38 | COc1ccc(CCN2CCC(Cc3c(Cl)cccc3Cl)C2=O)cc1 (centres unmarked) [Compound 92] |  | < 1 | 1 to 10 | 
39 | C[C@@H](C[C@H]1CCN([C@@H](C)c2ccccc2)C1=O)c1ccccc1 [Compound 135] |  | > 10 | < 1 | 
40 | Cc1ccc(CCN2CCC(Cc3c(Cl)cccc3Cl)C2=O)cc1 (centres unmarked) [Compound 93] |  | > 10 | > 10 | 
41 | Cc1ccc(CC2CCN(Cc3ccccc3)C2=O)cc1 (centres unmarked) [Compound 25] |  | > 10 | < 1 | 
42 | COc1cc(CC2(Cc3ccc(OCc4ccccc4)c(OC)c3)CCN(CCc3ccccc3)C2=O)ccc1OCc1ccccc1 [Compound 164] |  | > 10 | > 10 | 
43 | C[C@@H](c1ccccc1)N1CC[C@@H](CCc2cccc3ccccc23)C1=O [Compound 74] |  | 1 to 10 | 1 to 10 | 
44 | Cc1ccccc1C[C@H]1CCN([C@H](C)c2ccccc2)C1=O [Compound 67] |  | 1 to 10 | < 1 | 
45 | N#Cc1ccccc1CC1CCN(CCc2ccccc2)C1=O (centres unmarked) [Compound 23] |  | 1 to 10 | < 1 | 
46 | C[C@@H](c1ccccc1)[C@H]1CCN([C@@H](C)c2ccccc2)C1=O [Compound 160] |  | < 1 | > 10 | 
47 | Cc1ccc(C[C@H]2CCN([C@H](C)c3ccccc3)C2=O)cc1 [Compound 26] |  | > 10 | 1 to 10 | 
48 | Cc1ccc([C@@H](O)[C@H]2CCN([C@@H](C)c3ccccc3)C2=O)c(C)c1 [Compound 90] |  | > 10 | 1 to 10 | 
49 | CC[C@@H](C[C@@H]1CCN([C@@H](C)c2ccccc2)C1=O)c1ccccc1 [Compound 139] |  | < 1 | < 1 | 
50 | C[C@H](c1ccccc1)N1CC[C@H](Cc2ccccc2)C1=O [Compound 36] |  | > 10 | 1 to 10 | 
